Test results reported in patent publication US8586107B2, “Schisandra sphenanthera fruit extract and cosmetic, dermatological, and nutraceutical compositions comprising same” (Laboratoires Expanscience, priority 2009, dated 2013).
Marks after values point to notes of the source that are not given here.

Experiments:
[1] = test system: interleukin-8 (IL-8) secretion; assay: IL-8 secretion induced by PMA in keratinocytes (ELISA); type: cell-based, human
Protocol: (§1) Normal human keratinocytes were preincubated for 24 hours with Schisandra peptides at concentrations of 0.005% and 0.05% or with 10^-7 M dexamethasone (anti-inflammatory reference molecule).
(§2) Inflammation was then induced by treatment with 10 μg/ml PMA for 24 hours, always in the presence of Schisandra peptides or dexamethasone.
(§3) At the end of incubation, the quantities of interleukin-1β (IL-1β), interleukin-8 (IL-8) and interleukin-6 (IL-6) present in the culture supernatants were measured by ELISA.
(§4) In parallel, the number of biologically active cells is determined by a neutral red test. The quantity of cytokine assayed for each condition is reduced to the number of living cells by dividing by the OD540 value obtained at the end of the neutral red test.

[2] = test system: interleukin-1β (IL-1β) secretion; assay: IL-1β secretion induced by PMA in keratinocytes (ELISA); type: cell-based, human
Protocol: as §1, §2, §3, §4

[3] = test system: interleukin-6 (IL-6) secretion; assay: IL-6 secretion induced by PMA in keratinocytes (ELISA); type: cell-based, human; conditions: for IL-6: keratinocytes
Protocol: as §1, §2, §3, §4

[4] = test system: VEGF secretion; assay: VEGF protein release induced by PMA in keratinocytes (ELISA); type: cell-based, human
Protocol: Normal human keratinocytes were preincubated for 24 hours with Schisandra peptides at concentrations of 0.005%, 0.05% and 0.1% or with 10^-7 M dexamethasone (anti-inflammatory reference molecule).
as §2
At the end of incubation, the quantity of VEGF present in the culture supernatants was measured by ELISA.
as §4
The significance of the results was verified by a single-factor analysis of variance followed by a Tukey's test (GraphPad Prism version 5.02 software, GraphPad Software, San Diego, Calif., USA).

[5] = test system: kallikrein 5 (KLK5) gene expression; assay: KLK5 gene expression induced by calcitriol in keratinocytes (real-time RT-PCR); type: cell-based, human; conditions: NHEK, 24 hours
Protocol: (§5) In order to evaluate the potential activity of Schisandra peptides in the inflammatory phase of rosacea, we studied the effect of this complex of active agents on kallikrein 5 (KLK5) and cathelicidin (LL37) gene expression induced by a vitamin D analogue (calcitriol) in keratinocytes.
(§6) Normal human epidermal keratinocytes (NHEK) were cultivated in culture medium supplemented with Ca++ in order to bring them to a state of differentiation.
(§7) The keratinocytes were treated for 24 hours with 0.05% (w/v) Schisandra peptides in the presence or absence of 10^-7 M calcitriol (vitamin D analogue).
(§8) At the end of the treatment, the culture supernatants were eliminated and total RNA extracted using an extraction kit (RNeasy Mini Kit, Qiagen). Total RNA were then assayed in chips using the Experion™ system and the Experion RNA StdSens kit (Bio-Rad) and then reverse-transcribed into cDNA using the iScript cDNA Synthesis kit (Bio-Rad).
(§9) The neo-synthesized cDNA relating to the genes of interest (KLK5 and LL37) or to the reference genes were amplified selectively by real-time PCR on an iQ5 system (Bio-Rad) using SybrGreen technology (iQ SybrGreen kit, Bio-Rad).
(§10) The real-time RT-PCR method enables the relative quantification of the expression level of a gene of interest in relation to that of a reference gene in response to a given treatment.
(§11) The quantitative analysis of the results is based on the collection of threshold cycles.
(§12) The threshold cycle is […] correlated with the initial number of copies of target DNA.
(§13) ΔCt is thus calculated as follows: ΔCt=Cttarget gene−Ctreference gene
(§14) In a second step, the variation, as a function of the treatment and the number of copies of the gene of interest, was determined. ΔΔCt is thus calculated as follows: ΔΔCt=ΔCtcontrol−ΔCttreated
(§15) Lastly, relative quantity (RQ) is calculated: RQ=(1+E)ΔΔCt.
(§16) E (efficiency) is considered equal to 1, and thus: RQ=2ΔΔCt
(§17) The significance of the results was verified for the ΔCt values by a single-factor analysis of variance followed by a Tukey's test (GraphPad Prism version 5.02 software, GraphPad Software, San Diego, Calif., USA).

[6] = test system: cathelicidin (LL37) gene expression; assay: LL37 gene expression induced by calcitriol in keratinocytes (real-time RT-PCR); type: cell-based, human; conditions: NHEK, 24 hours
Protocol: as §5, §6, §7, §8, §9, §10, §11, §12, §13, §14, §15, §16, §17

[7] = test system: endothelin production; assay: Endothelin production by dermal microvascular endothelial cells (ELISA); type: cell-based, human; conditions: 6 hours, 16.7 nM insulin
Protocol: Endothelin is a neuropeptide with powerful vasoconstrictive activity. It is secreted by endothelial and epithelial cells (keratinocytes), fibroblasts, adipocytes and macrophages. The effect of Schisandra peptides on endothelin production by endothelial cells was studied.
Normal adult human dermal microvascular endothelial cells cultivated in a monolayer were incubated for 6 hours in the absence (control) or the presence of 0.05% and 0.1% Schisandra peptides or 16.7 nM insulin (reference activator).
At the end of the incubation period, secreted endothelin was quantified by ELISA. In parallel, the proteins contained in the cellular lysates were quantified by the Bradford method.
The quantity of endothelin assayed was thus normalized with the quantity of total proteins, and the results were then expressed as the ratio of endothelin (ng) to total protein (μg) in the layer of cells.
The statistical significance of the results was evaluated by a single-factor analysis of variance followed by a Holm-Sidak test.

[8] = test system: Normal human dermal microvascular endothelial cells; assay: Endothelial cell proliferation in the absence or presence of VEGF (intracellular phosphatase activity); type: cell-based; conditions: 10 ng/ml VEGF
Protocol: Normal human dermal microvascular endothelial cells were incubated for 24 or 48 hours in the absence (control) or presence of Schisandra peptides at concentrations of 0.05% and 0.1% and in the presence and absence of 10 ng/ml vascular endothelial growth factor (VEGF), the reference activator.
At the end of incubation, cell viability was evaluated by a spectrophotometric assay of intracellular phosphatase activity.
Statistical significance was evaluated by a single-factor analysis of variance followed by a Holm-Sidak test.

[9] = 10 μg/ml PMA 24 hours alone (stimulated control)
[10] = 10^-7 M calcitriol alone (stimulated control)
[11] = 10^-7 M calcitriol alone (stimulated control), control cells = 1
[12] = 10−7 M dexamethasone 24 h preincubation + PMA 24 h

CCCCCCCCCCCCCC(=O)O[C@@H]1[C@@H](C)[C@@]2(O)[C@@H](C=C(CO)C[C@]3(O)C(=O)C(C)=C[C@@H]23)[C@@H]2C(C)(C)[C@]12OC(C)=O [PMA]
IL-8 [1, 9]: 2.056 ± 0.166 pg/ml/ODneutral red
IL-1β [2, 9]: 0.106 ± 0.008 ODELISA-ODneutral red
IL-6 [3, 9]: 0.098 ± 0.002 ODELISA/ODneutral red
VEGF [4, 9]: 3333.861 ± 111.766 pg/ml/ODneutral red

C=C1/C(=C\C=C2/CCC[C@]3(C)[C@@H]([C@H](C)CCCC(C)(C)O)CC[C@@H]23)C[C@@H](O)C[C@@H]1O [calcitriol]
Stimulation of kallikrein 5 gene expression vs. control cells ([5]; 10^-7 M calcitriol): +149%
Mean ΔCt (CtKLK5 − CtGAPDH) [5, 10]: 2.46
ΔΔCt (KLK5) [5, 10]: 1.32
KLK5 expression (RQ) [5, 11]: 2.49$$
Stimulation of LL37 gene expression vs. control cells ([6]; 10^-7 M calcitriol): +795%
Mean ΔCt (CtLL37 − CtGAPDH) [6, 10]: 11.01
ΔΔCt (LL37) [6, 10]: 3.16
LL37 expression (RQ) [6, 11]: 8.95$$$

insulin: reference activator of endothelin production
Endothelin production, change vs. control cells [7]: +30%
Endothelin ([7]; endothelial cells): 1.72 ± 0.23 ng/μg of proteins

C[C@@H]1C[C@H]2[C@@H]3CCC4=CC(=O)C=C[C@]4(C)[C@@]3(F)[C@@H](O)C[C@]2(C)[C@@]1(O)C(=O)CO [dexamethasone]
IL-8 [1, 12]: 0.973 ± 0.213 pg/ml/ODneutral red
IL-1β [2, 12]: 0.037 ± 0.011 ODELISA-ODneutral red
IL-6 release, change vs. stimulated control (PMA) ([3]; 10−7 M dexamethasone): −56%***
IL-6 [3, 12]: 0.043 ± 0.012 ODELISA/ODneutral red
VEGF ([4]; 10^−7 M dexamethasone 24 h preincubation + PMA 24 h): 1789.338 ± 489.677 pg/ml/ODneutral red

VEGF
Endothelial cell growth, stimulation in relation to control cells ([8]; 24 hours): +41.4%
Endothelial cell growth, stimulation in relation to control cells ([8]; 48 hours): +96.3%
